Laboratory results taken from patent US20120141381A1, “Methods For Loading Contrast Agents Into A Liposome” (Duke University Office of Technology & Venture, priority 2009, published 2012).

Test: Measurement of relaxivity of Gd-HP-DO3A-Dox-LTSL at 1.5T
Format: physicochemical
Settings: free contrast agent
Method: T1 of all of the solutions was calculated from the fit of signal intensity vs. inversion time in images obtained with a T1-weighted inversion recovery sequence with variable inversion time (T1=50, 75, 100, 150, 300, 450, 600, 900, 1050 ms). Relaxivity was obtained as the slope of 1/T1 vs. Gd-HP-DO3A concentration. All imaging was performed using a clinical 1.5T MR scanner (Philips Medical Systems, Best, The Netherlands).

Q: With `CC(O)CN1CCN(CC(=O)[O-])CCN(CC(=O)[O-])CCN(CC(=O)[O-])CC1.[Gd+3]` (stereo not shown) [ProHance®, gadolinium complex of 10-(2-hydroxy-propyl)-1,4,7,10-tetraazacyclododecane-1,4,7-triacetic acid] as the compound, how does the “relaxivity (slope of 1/T1 vs concentration)” value read?
A: 4.05 ± 0.14 mM⁻¹ s⁻¹
